Experimental data taken from patent US20240287173A1, “THERAPEUTIC AGENT FOR MUSCULAR ATROPHY” (NATIONAL UNIVERSITY CORPORATION KUMAMOTO UNIVERSITY, priority 2021, published 2024).

What was measured:
[1] = test system: wild-type mouse mechanical load-induced muscle hypertrophy model; experiment: Mechanical overload (tenotomy)-induced muscle hypertrophy model; format: in vivo; conditions: DAPT 10 mg/kg i.p. after tenotomy, day 14, vs control mice
Method: (§1) Wild-type mice were used to examine the effects of inhibition of the Notch signaling pathway on muscle in vitro. Ultra-LEAF™ anti-mouse Dll4 antibody (Dll4 blocking antibody) or Ultra-LEAF™ American hamster IgG control antibody (control antibody) was administered intraperitoneally (10 mg/kg body weight) every 4 days in each experiment. Recombinant Dll4-Fc chimeric protein (rDll4) was dissolved in phosphate-buffered saline (PBS) and administered (0.5 mg/kg body weight) every two days. The γ-secretase inhibitor, DAPT, dissolved in 10% ethanol and corn oil, was administered every 2 days (10 mg/kg body weight). Control mice were injected intraperitoneally with an equivalent volume of vehicle in rDll4 or DAPT experiments.
Tenotomy surgery was performed on both legs of mice to induce muscle hypertrophy. In anesthetized mice, an incision was made along the midline of the calf after hair removal. […]
(§2) Isolated PLA or TA muscles were immediately frozen in liquid nitrogen-cooled 2-methylbutane and stored at −80° C. until analysis. […] Immunostained specimens were visualized using Alexa Fluor conjugated secondary antibodies and observed using fluorescence microscopy. Image-J (NIH) was used to quantify myofiber CSA from at least 500 myofibers and count the number of satellite cells per myofiber from at least 15 myofibers.

wild-type mouse HU model = experiment: Hindlimb unloading (HU) muscle atrophy model; format: in vivo; conditions: DAPT 10 mg/kg i.p. every other day during HU period
Method: as §1, with “Control mice were injected intraperitoneally with an equivalent volume of vehicle in rDll4 or DAPT experiments.” left out
(§3) Total RNA was extracted from muscle tissue, isolated myofibers, cultured cells, and freshly sorted cells using ISOGEN II and RNeasy Kit (Qiagen) according to the manufacturer's instructions. […] Quantitative PCR (qPCR) was performed using THUNDERBIRD SYBR qPCR mix (TOYOBO) and real-time PCR detection system (CFX96; Bio Rad). […]
as §2

[2] = test system: EDL myofibers derived from N2f/f mice; experiment: Dll4-induced myofiber atrophy on recombinant Dll4-coated plates with γ-secretase inhibitor; format: cell-based, mouse; conditions: DAPT 10 μM, 48 hours, recombinant Dll4-coated plate
Method: Culture dishes were coated with Notch ligand recombinant protein as reported by Sakai et al. (Sakai et al., PLOS One 12, e0177516 (2017)). Culture dishes were first coated with 10 μg/ml anti-Fc antibody for 1 hour at room temperature, followed by Matrigel (Corning) for 20 minutes. Fc antibody coated dishes were incubated with 5 ng/μl of Fc fusion protein of each Notch ligand (Dll1, Dll4, Jag1 and Jag2) for 1 hour at room temperature. Individual myofibers isolated from EDL muscle were placed in serum-free DMEM and cultured in a CO2 incubator for 48 hours. DAPT (10 µM) was used to inhibit γ-secretase activity in myofibers.
Cultured myofibers were captured using fluorescence microscopy and diameters were quantified from at least 15 individual myofibers using ImageJ (NIH).
Notch, which is a transmembrane receptor, has its transmembrane domain cleaved by γ-secretase, translocates its intracellular domain to the nucleus, and functions as a transcription factor. Therefore, DAPT, a γ-secretase inhibitor, was used to test the influence of γ-secretase activity on Dll4-induced myofiber atrophy. EDL myofibers derived from N2^f/f mice were cultured for 48 hours on a plate coated previously with recombinant Dll4 protein using a medium containing a γ-secretase inhibitor DAPT (10 μM) or PBS.

wild-type mouse DB model = experiment: STZ-induced diabetes (DB) muscle atrophy model; format: in vivo; conditions: DAPT 10 mg/kg i.p. every other day during DB induced period
Method: as §1, with “Control mice were injected intraperitoneally with an equivalent volume of vehicle in rDll4 or DAPT experiments.” left out
Mice were given a single intraperitoneal injection of STZ (150 mg/kg body weight) at a level that is toxic to insulin-producing pancreatic β-cells, or an equal volume of solvent (0.1 M citrate buffer, pH 4.5) as a control was injected. Mice were monitored for hyperglycemia on day 3 using Accu-chek (Roche), and only mice that achieved casual blood glucose levels>300 mg/dl were used in the experiment. […]
as §3

myofiber atrophy on Dll4 stimulation (myofiber diameter) [2]: resistant to Dll4 stimulation
Structure (SMILES): C[C@H](NC(=O)Cc1cc(F)cc(F)c1)C(=O)N[C@H](C(=O)OC(C)(C)C)c1ccccc1 [DAPT]
muscle hypertrophy (overload-induced PLA muscle weight gain) [1]: muscle hypertrophy was exhibited more readily | muscle atrophy (muscle mass of SOL, PLA, GAS) (wild-type mouse HU model): significant suppression of muscle atrophy | muscle atrophy (muscle mass) (wild-type mouse DB model): significant suppression of muscle atrophy
